In patent US20150283287A1, “METHODS AND COMPOSITIONS FOR WOUND HEALING” (IMBED BIOSCIENCES, INC., priority 2012, published 2015):

How the values were obtained:
[1] = test system: P. aeruginosa (ATCC 27853) biofilms; assay: Inhibition of biofilm formation (crystal violet staining); assay type: cell-based, Pseudomonas aeruginosa
Protocol: During the development of embodiments of the technology provided herein, experiments were conducted to determine the minimum concentration of Ga (e.g., as Ga(NO3)3) to inhibit biofilm formation. In particular, Ga was added to cultures of Pseudomonas aeruginosa in biofilm growth media (500 μL of 1% tryptic soy broth (TSB)) to test the inhibition of biofilm formation at the bottom of 48-well tissue culture plates.
Biofilm growth arising from suspensions of 10^6 CFU/ml P. aeruginosa (ATCC 27853) was quantified after 24, 48, and 72 hours by staining biofilms with crystal violet, following methods described previously (Brandenburg et al. Tryptophan Inhibits Biofilm Formation by Pseudomonas aeruginosa. Antimicrobial Agents and Chemotherapy. 2013; 57:1921-5).

established biofilms = details: in TSB; cited from earlier work
mammalian cells = details: cited from earlier work
incisional wounds = details: in vivo; cited from earlier work

SMILES	Effect on free (planktonic) bacterial counts ([1]; 25 μM)	Concentration in solution sufficient to completely inhibit biofilm formation ([1]; 72 hours, 10^6 CFU/ml in 1% TSB) [µM]	Concentration that disperses established biofilms (established biofilms) [µM]	Concentrations not cytotoxic to mammalian cells (mammalian cells)	Fibroblastic proliferation (incisional wounds)	Production of collagen (incisional wounds)
O=[N+]([O-])[O-].O=[N+]([O-])[O-].O=[N+]([O-])[O-].[Ga+3] [Ga^3+, Ga(NO3)3]	not bactericidal	25	100	up to 1 mM	–	–
CC1=C(/C=C/C(C)=C/C=C/C(C)=C/C(=O)O)C(C)(C)CCC1 [tretinoin]	–	–	–	–	increased	diminished
